Test results from the NIST ThermoML archive (doi:10.1021/je0496140).
± gives the expanded uncertainty stated by the source.

Experiments:
[1] = 101.33 kPa, Liquid
[2] = xn = mol fraction of the nth substance listed; conditions: 101.33 kPa, Liquid

CCCCO [butan-1-ol]
[1]
Conditions | mass density [kg/m3] | viscosity [mPa·s]
288.15 K | 813.42 ± 0.43 | 3.346 ± 0.038
298.15 K | 805.4 ± 0.44 | 2.56 ± 0.029
308.15 K | 798.14 ± 0.45 | 1.991 ± 0.023
318.15 K | 790.19 ± 0.47 | 1.569 ± 0.019

CCCCCl [1-chlorobutane] + CCCCO
[2]
Conditions | mass density [kg/m3] | viscosity [mPa·s]
288.15 K, x2 = 0.062 | 886.96 ± 0.37 | –
288.15 K, x2 = 0.0949 | – | 0.509 ± 0.007
288.15 K, x2 = 0.1027 | 883.98 ± 0.37 | –
288.15 K, x2 = 0.1383 | 881.38 ± 0.37 | –
288.15 K, x2 = 0.1964 | – | 0.57 ± 0.008
288.15 K, x2 = 0.2032 | 876.67 ± 0.37 | –
288.15 K, x2 = 0.2597 | 872.57 ± 0.37 | –
288.15 K, x2 = 0.2859 | 870.67 ± 0.37 | –
288.15 K, x2 = 0.2961 | – | 0.655 ± 0.009
288.15 K, x2 = 0.3764 | 864.06 ± 0.38 | –
288.15 K, x2 = 0.3949 | – | 0.774 ± 0.01
288.15 K, x2 = 0.3967 | 862.58 ± 0.38 | –
288.15 K, x2 = 0.4541 | 858.3 ± 0.38 | –
288.15 K, x2 = 0.4822 | 856.17 ± 0.38 | –
288.15 K, x2 = 0.4941 | – | 0.94 ± 0.012
288.15 K, x2 = 0.5076 | 854.25 ± 0.38 | –
288.15 K, x2 = 0.5466 | 851.25 ± 0.39 | –
288.15 K, x2 = 0.5818 | 848.53 ± 0.39 | –
288.15 K, x2 = 0.5915 | – | 1.175 ± 0.014
288.15 K, x2 = 0.6332 | 844.49 ± 0.39 | –
288.15 K, x2 = 0.6747 | 841.19 ± 0.39 | –
288.15 K, x2 = 0.6954 | – | 1.503 ± 0.018
288.15 K, x2 = 0.7342 | 836.4 ± 0.4 | –
288.15 K, x2 = 0.7698 | 833.49 ± 0.4 | –
288.15 K, x2 = 0.794 | – | 1.934 ± 0.023
288.15 K, x2 = 0.8509 | 826.62 ± 0.41 | –
288.15 K, x2 = 0.892 | – | 2.529 ± 0.029
288.15 K, x2 = 0.9022 | 822.13 ± 0.41 | –
288.15 K, x2 = 0.9582 | 817.04 ± 0.42 | –
298.15 K, x2 = 0.0949 | – | 0.452 ± 0.007
298.15 K, x2 = 0.1964 | – | 0.504 ± 0.007
298.15 K, x2 = 0.2961 | – | 0.57 ± 0.008
298.15 K, x2 = 0.3949 | – | 0.661 ± 0.009
298.15 K, x2 = 0.4941 | – | 0.788 ± 0.01
298.15 K, x2 = 0.5915 | – | 0.955 ± 0.012
298.15 K, x2 = 0.6954 | – | 1.204 ± 0.015
298.15 K, x2 = 0.794 | – | 1.525 ± 0.018
298.15 K, x2 = 0.892 | – | 1.955 ± 0.023
308.15 K, x2 = 0.0949 | – | 0.407 ± 0.006
308.15 K, x2 = 0.1056 | 861.88 ± 0.4 | –
308.15 K, x2 = 0.1964 | – | 0.448 ± 0.006
308.15 K, x2 = 0.1979 | 855.62 ± 0.4 | –
308.15 K, x2 = 0.2842 | 849.82 ± 0.4 | –
308.15 K, x2 = 0.2961 | – | 0.501 ± 0.007
308.15 K, x2 = 0.3908 | 842.67 ± 0.4 | –
308.15 K, x2 = 0.3949 | – | 0.576 ± 0.008
308.15 K, x2 = 0.4941 | – | 0.67 ± 0.009
308.15 K, x2 = 0.4964 | 835.5 ± 0.41 | –
308.15 K, x2 = 0.5913 | 828.95 ± 0.41 | –
308.15 K, x2 = 0.5915 | – | 0.797 ± 0.01
308.15 K, x2 = 0.6908 | 821.85 ± 0.42 | –
308.15 K, x2 = 0.6954 | – | 0.984 ± 0.012
308.15 K, x2 = 0.7917 | 814.48 ± 0.43 | –
308.15 K, x2 = 0.794 | – | 1.226 ± 0.015
308.15 K, x2 = 0.892 | – | 1.547 ± 0.018
308.15 K, x2 = 0.9003 | 806.19 ± 0.44 | –
318.15 K, x2 = 0.0612 | 853.78 ± 0.41 | –
318.15 K, x2 = 0.0913 | 851.66 ± 0.41 | –
318.15 K, x2 = 0.0949 | – | 0.367 ± 0.006
318.15 K, x2 = 0.1849 | 845.48 ± 0.41 | –
318.15 K, x2 = 0.1964 | – | 0.401 ± 0.006
318.15 K, x2 = 0.2759 | 839.66 ± 0.41 | –
318.15 K, x2 = 0.2961 | – | 0.444 ± 0.006
318.15 K, x2 = 0.3836 | 832.82 ± 0.42 | –
318.15 K, x2 = 0.3949 | – | 0.503 ± 0.007
318.15 K, x2 = 0.4858 | 826.26 ± 0.42 | –
318.15 K, x2 = 0.4941 | – | 0.577 ± 0.008
318.15 K, x2 = 0.5859 | 819.71 ± 0.43 | –
318.15 K, x2 = 0.5915 | – | 0.674 ± 0.009
318.15 K, x2 = 0.6868 | 812.99 ± 0.43 | –
318.15 K, x2 = 0.6954 | – | 0.816 ± 0.01
318.15 K, x2 = 0.7868 | 806.09 ± 0.44 | –
318.15 K, x2 = 0.794 | – | 0.993 ± 0.012
318.15 K, x2 = 0.8906 | 798.56 ± 0.45 | –
318.15 K, x2 = 0.892 | – | 1.238 ± 0.015
